Tests used:
Tnfaip3 mRNA = Tnfaip3 mRNA in iBMDMs (quantitative PCR); type: cell-based, mouse; conditions: ox-dsDNA90 or CDNs, BAY11-7082 1 μM, 4 h pretreated, Fig. 4j,k, n = 3
Protocol: Total RNA was extracted from around 1 × 10^6 cultured cells per population and purified by employing an RNA simple Total RNA Kit (TIANGEN, Cat#DP419), Following column purification, RNA was immediately reversed to cDNA by implementing the PrimeScript reverse transcription reagent kit (Takara, RR047A) according to the manufacturer’s instructions. The concentration of RNA was measured with a NanoDrop 2000 (Thermo Fisher Scientific, USA). Reverse transcription polymerase chain reaction (qRT‒PCR) was performed using SYBR Premix Ex Taq (Takara, CAT#172-5124) in an ABI7500 real-time PCR system (Applied Biosystems, CA). The primer sequences are shown in Supplementary Table 2. Relative gene expression was presented as fold changes normalized by Gapdh using the 2^−ΔΔCt method.

A20 = A20 protein expression in iBMDMs / BMDMs (immunoblot); type: cell-based, mouse
Protocol: (§1) For immunoblot analysis of kidney tissue, total protein lysates were prepared from renal tissue, which was ground in liquid nitrogen and then added to lysis buffer in a Total Protein Extraction Kit (Signalway Antibody, Cat#PE001). Samples were centrifuged at 12,000 rpm for 15 min at 4 °C, and the supernatant was collected immediately. For immunoblot analysis of cells, cultured cells after treatment were lysed with lysis buffer, which was premixed with protease and phosphatase inhibitors (Signalway Antibody, Cat#PE001). The samples were centrifuged at 12,000 r/min for 15 min at 4 °C, and the supernatant was collected immediately. Ultimately, both types of protein samples were then mixed with 4× Laemmli loading buffer (Bio-Rad, Cat#1610747) and denatured by boiling at 95 °C for 5 min.
(§2) Prepared protein samples were subjected to 6-15% SDS polyacrylamide gels and separated according to the protein concentrations. Then, the protein bands were transferred to polyvinylidene difluoride (PVDF) membranes by a wet transfer apparatus (Bio-Rad, USA). […] The protein bands were detected with an enhanced chemiluminescence kit (Millipore, Cat#WBKLS0500) using a gel imaging system (Bio-Rad, USA) for visualization and standardization of the amount of protein loaded. α-Tubulin was used as the internal control.

AKI mice [1] = test: survival of AKI mice; type: in vivo, mouse; conditions: n = 10 per group
Protocol: (§3) Aristolochic acid I sodium salt was dissolved in PBS to 1 mg/mL and injected intraperitoneally at a dose of 10 mg/kg (body weight) every 24 h for 3 days; cisplatin was dissolved in PBS to 1.5 mg/mL for one-time intraperitoneal 25 mg/kg injection; LPS (Sigma, Cat#L2630) was dissolved in PBS to 2.5 mg/mL for one-time intraperitoneal 25 mg/kg injection; deoxyribonuclease I (DNase I, Sigma, Cat#SLBV1446) was dissolved in PBS to 1 mg/mL and injected intraperitoneally at a dose of 10 mg/kg at 4 h before cisplatin or AA I injection and every 24 h after injection. Disulfiram (MedChemExpress, CAS:97-77-8) was diluted in corn oil to 12.5 mg/mL and injected 50 mg/kg intraperitoneally every 24 h after cisplatin or AA I administration. Cu(II) (Sigma, Cat#344419) was dissolved in PBS to 30 µg/mL and administered intraperitoneally 6 h before disulfiram at a dose of 0.15 mg/kg; TNF-α (Peprotech, Cat#315-01 A) was dissolved in PBS to 10 µg/mL and injected at 100 µg/kg once through the caudal vein 24 h before cisplatin injection. Metformin (Sigma, Cat#D150959) was dissolved in PBS to 5 mg/mL and injected intraperitoneally at a dose of 50 mg/kg 24 h before cisplatin or AA I injection and every 24 h after injection. MCC950 (MedChem Express, CAS:256373-96-3) was dissolved in PBS to 5 mg/mL and injected intraperitoneally at a dose of 50 mg/kg 12 h before cisplatin or AA I injection and every 12 h after injection; berberine (APExBIO, Cat#N1368) was dissolved in PBS to 5 mg/mL and 5 mg/kg injected intraperitoneally at 36, 24 and 12 h before cisplatin; A20-derived-peptide was dissolved in ddH2O to 3 mg/mL and injected intraperitoneally at a dose of 15 mg/kg 1 h before cisplatin. To supervise the effects of various treatments on survival time and rate, the mice were observed, and survival curves were generated. To investigate the specific mechanisms, whole blood was retrieved from the orbit, serum was separated through centrifugation on the 4th day, and the mice were then sacrificed by cervical dislocation. Mice were randomly assigned in experiments, while there was no blinding during the animal experiments.

AKI mice [2] = test: overall therapeutic effect in AKI mice; type: in vivo, mouse; conditions: for alleviation of AKI compared with MCC950: DNase I, disulfiram vs NLRP3 inhibitor MCC950
Protocol: as §3

AKI mice [3] = test: tubular injury / renal injury of AKI mice (HE histology); type: in vivo, mouse
Protocol: (§4) LPS (Sigma, Cat#L2630) was dissolved in PBS to 2.5 mg/mL for one-time intraperitoneal 25 mg/kg injection; deoxyribonuclease I (DNase I, Sigma, Cat#SLBV1446) was dissolved in PBS to 1 mg/mL and injected intraperitoneally at a dose of 10 mg/kg at 4 h before cisplatin or AA I injection and every 24 h after injection. Disulfiram (MedChemExpress, CAS:97-77-8) was diluted in corn oil to 12.5 mg/mL and injected 50 mg/kg intraperitoneally every 24 h after cisplatin or AA I administration. Cu(II) (Sigma, Cat#344419) was dissolved in PBS to 30 µg/mL and administered intraperitoneally 6 h before disulfiram at a dose of 0.15 mg/kg; TNF-α (Peprotech, Cat#315-01 A) was dissolved in PBS to 10 µg/mL and injected at 100 µg/kg once through the caudal vein 24 h before cisplatin injection. […] MCC950 (MedChem Express, CAS:256373-96-3) was dissolved in PBS to 5 mg/mL and injected intraperitoneally at a dose of 50 mg/kg 12 h before cisplatin or AA I injection and every 12 h after injection; berberine (APExBIO, Cat#N1368) was dissolved in PBS to 5 mg/mL and 5 mg/kg injected intraperitoneally at 36, 24 and 12 h before cisplatin; […] To supervise the effects of various treatments on survival time and rate, the mice were observed, and survival curves were generated. To investigate the specific mechanisms, whole blood was retrieved from the orbit, serum was separated through centrifugation on the 4th day, and the mice were then sacrificed by cervical dislocation. Mice were randomly assigned in experiments, while there was no blinding during the animal experiments. Renal function was evaluated based on serum creatinine level and histological features. Serum creatinine was determined in the Clinical Pharmacology Lab, Clinical Trial Center, WCH, SCU. The kidneys were extracted from euthanized mice, immediately fixed with 4% paraformaldehyde, and embedded in paraffin. Furthermore, the samples were cut into 5 µm thick sections. These tissue samples were subjected to hematoxylin-eosin (HE) and […] according to standard protocols with HE reagent (Biosharp, Cat#BL702B, BL703B) and Masson reagent (Servicebio, Cat#G1006-100ML). The pathological changes were detected through optical microscopy, and the tubulointerstitial injury score was determined as previously reported.

GSDMD cleavage in iBMDMs = test: cleavage of GSDMD in iBMDMs after ox-self-DNA treatment (immunoblot); type: cell-based, mouse; conditions: AA-DNA with or without MCC950, Fig. 3i
Protocol: as §1, with “Ultimately, both types of protein samples were then mixed with 4× Laemmli loading buffer (Bio-Rad, Cat#1610747) and denatured by boiling at 95 °C for 5 min.” left out
as §2, with “concentrations.” for “concentrations. Then, the protein bands were transferred to polyvinylidene difluoride (PVDF) membranes by a wet transfer apparatus (Bio-Rad, USA).”
Self-DNA was isolated from the mouse kidney tissue using a DNeasy®Blood & Tissue Kit (QIAGEN, REF#69504) according to the manufacturer’s instructions. The isolated self-DNA were mixed with PicoGreen reagent, and then detected via employing SpectraMax iD3 microplate reader (Molecular Devices), with 502 nm incident ray and 523 nm emergent light. […]

AKI mice [4] = test: serum creatinine of AKI mice; type: in vivo, mouse; conditions: mice following injection of cisplatin; berberine 5 mg/kg i.p.; vs PBS
Protocol: as §4

AKI mice [5] = test: renal fibrosis of AKI mice (Masson staining); type: in vivo, mouse; conditions: mice following injection of cisplatin; berberine 5 mg/kg i.p.; vs PBS
Protocol: LPS (Sigma, Cat#L2630) was dissolved in PBS to 2.5 mg/mL for one-time intraperitoneal 25 mg/kg injection; deoxyribonuclease I (DNase I, Sigma, Cat#SLBV1446) was dissolved in PBS to 1 mg/mL and injected intraperitoneally at a dose of 10 mg/kg at 4 h before cisplatin or AA I injection and every 24 h after injection. Disulfiram (MedChemExpress, CAS:97-77-8) was diluted in corn oil to 12.5 mg/mL and injected 50 mg/kg intraperitoneally every 24 h after cisplatin or AA I administration. Cu(II) (Sigma, Cat#344419) was dissolved in PBS to 30 µg/mL and administered intraperitoneally 6 h before disulfiram at a dose of 0.15 mg/kg; TNF-α (Peprotech, Cat#315-01 A) was dissolved in PBS to 10 µg/mL and injected at 100 µg/kg once through the caudal vein 24 h before cisplatin injection. […] Renal function was evaluated based on serum creatinine level and histological features. Serum creatinine was determined in the Clinical Pharmacology Lab, Clinical Trial Center, WCH, SCU. […] The pathological changes were detected through optical microscopy, and the tubulointerstitial injury score was determined as previously reported.

NEK7 = conditions: cited from earlier work
Source text: Furthermore, we investigated the potential therapeutic medicines targeting to NEK7 and evaluated their effects on alleviating AKI. […] A ...

IL-1β = test: serum IL-1β of AKI mice (ELISA); type: in vivo, mouse; conditions: Cis or AA I AKI mice; DNase I 10 mg/kg i.p.
Protocol: Aristolochic acid I sodium salt was dissolved in PBS to 1 mg/mL and injected intraperitoneally at a dose of 10 mg/kg (body weight) every 24 h for 3 days; cisplatin was dissolved in PBS to 1.5 mg/mL for one-time intraperitoneal 25 mg/kg injection; LPS (Sigma, Cat#L2630) was dissolved in PBS to 2.5 mg/mL for one-time intraperitoneal 25 mg/kg injection; deoxyribonuclease I (DNase I, Sigma, Cat#SLBV1446) was dissolved in PBS to 1 mg/mL and injected intraperitoneally at a dose of 10 mg/kg at 4 h before cisplatin or AA I injection and every 24 h after injection. Disulfiram (MedChemExpress, CAS:97-77-8) was diluted in corn oil to 12.5 mg/mL and injected 50 mg/kg intraperitoneally every 24 h after cisplatin or AA I administration. Cu(II) (Sigma, Cat#344419) was dissolved in PBS to 30 µg/mL and administered intraperitoneally 6 h before disulfiram at a dose of 0.15 mg/kg; TNF-α (Peprotech, Cat#315-01 A) was dissolved in PBS to 10 µg/mL and injected at 100 µg/kg once through the caudal vein 24 h before cisplatin injection. […]
To measure the levels of CXCL10, IFN-β, IL-1β, and IL-18, mouse serum or cell culture medium was collected and measured by ELISA (NeoBioscience, China) according to the manufacturer’s instructions.

For `Cc1ccc(S(=O)(=O)/C=C/C#N)cc1` [BAY11-7082], the “increased expression of A20, mRNA level” value (Tnfaip3 mRNA) was “almost completely inhibited the increased expression of A20 at both the mRNA and protein levels”, the “increased expression of A20, protein level” value (A20; iBMDMs, ox-dsDNA90 or CDNs, BAY11-7082 1 μM, 4 h pretreated, Fig. 4l) was “almost completely inhibited the increased expression of A20 at both the mRNA and protein levels” and the “increased expression of A20 under ox-DNA stimulation” value (A20; ox-DNA stimulation, BAY11-7082, discussion) was “abrogated”.
With `CC(C)(O)c1coc(S(=O)(=O)NC(=O)Nc2c3c(cc4c2CCC4)CCC3)c1` [MCC950] the survival (AKI mice [1]; mice treated with nephrotoxic drugs (Cis, AA I), MCC950 50 mg/kg i.p. 12 h before and every 12 h after) was “improved the survival”, the “progression of AKI” value (AKI mice [2]; MCC950 50 mg/kg i.p.) was “significantly alleviated the progression of AKI” and the “tubular injury (in words)” value (AKI mice [3]; mice treated with nephrotoxic drugs (Cis, AA I), MCC950 50 mg/kg i.p.) was “attenuate tubular injury”. For the same molecule, the “cleavage of GSDMD” value (GSDMD cleavage in iBMDMs) was “significantly reduced the cleavage of GSDMD”.
In the case of `COc1ccc2cc3[n+](cc2c1OC)CCc1cc2c(cc1-3)OCO2` [berberine], the survival (AKI mice [1]; mice following injection of cisplatin, berberine 5 mg/kg i.p. at 36, 24 and 12 h before, vs PBS) was “improved survival”, the “serum creatinine (in words)” value (AKI mice [4]) was “decreased serum creatinine” and the renal fibrosis (AKI mice [5]) was “decreased renal fibrosis”. For the same molecule, the “renal injury (in words)” value (AKI mice [3]; mice following injection of cisplatin, berberine 5 mg/kg i.p., vs PBS) was “attenuated renal injury” and the “NEK7 activity (literature)” value (NEK7) was “inhibit NEK7 activity”.
With `CCN(CC)C(=S)SSC(=S)N(CC)CC` [disulfiram, Disulfiram] the survival (AKI mice [1]; Cis or AA I mice, disulfiram 50 mg/kg i.p. every 24 h, Cu(II) 0.15 mg/kg i.p. 6 h before disulfiram) was “improved survival with effects comparable to those of DNase I” and the “alleviation of AKI compared with MCC950” value (AKI mice [2]) was “more effective in alleviating AKI than the NLRP3 inhibitor MCC950”.
In the case of deoxyribonuclease I [DNase I], the “serum level of IL-1β (in words)” value (IL-1β) was “significantly reduced serum level of IL-1β”, the “therapeutic effect compared to Sting-knockout mice” value (AKI mice [2]; DNase I 10 mg/kg i.p. 4 h before cisplatin or AA I and every 24 h after) was “more pronounced compared to that in Sting^−/− mice” and the “alleviation of AKI compared with MCC950” value (AKI mice [2]) was “more effective in alleviating AKI than the NLRP3 inhibitor MCC950”.

— paper PMC12032302, “A20 attenuates oxidized self-DNA-mediated inflammation in acute kidney injury” (Signal Transduction and Targeted Therapy, 2025)
